Laboratory results reported in PMC8507260, “A2E-induced inflammation and angiogenesis in RPE cells in vitro are modulated by PPAR-α, -β/δ, -γ, and RXR antagonists and by norbixin” (Aging (Albany NY), 2021).
“Also recorded” adds a separate entry of the source. Where two headings read alike, the source gives them in different places.

Tests used:
NF-κB = NF-κB transactivation, luciferase reporter in porcine RPE cells; assay type: cell-based; settings: A2E 20 μM, T007907 10 μM
Protocol: Pig eyes were obtained from a local slaughterhouse and transported to the laboratory in ice-cold Ringer solution. After removal of the anterior segment of the eye, the vitreous and neural retina was separated from the RPE and removed. The eyecup was washed twice with phosphate buffer saline (PBS), filled with trypsin (0.25% in PBS) and incubated at 37°C for 1.5 h. RPE cells were harvested by gently pipetting, centrifuged to remove trypsin and re-suspended in Dulbecco’s Modified Eagle Medium (DMEM) supplemented with 20% (v/v) foetal-calf serum (DMEM20%FCS) and 0.1% gentamycin. Cells were seeded into 60 mm diameter Petri dishes, cultured in an atmosphere of 5% CO2/95% air at 37°C, and supplied with fresh medium after 24 hours and 4 days in vitro. For experiments aimed at measuring mRNA or protein expression in RPE, cells were trypsinized after one week in culture and transferred to 24-well or 6-well plates at a density of 1.5 × 10^5 cells/cm^2 in DMEM2%FCS. Norbixin or agonists were added to the medium 24 h after seeding, and antagonists were added to the medium 24 h later. A2E treatment was performed during 19 h before cellular sample preparation. All the drugs used in these experiments were prepared as stock solutions in DMSO.
(§1) After one week in culture, cells were trypsinized and transferred to a 96-well plate at a density of 6 × 10^4 cells/cm^2 in DMEM2%FCS. The next day, cells were transfected using the Cignal Reporter Assay Kits for PPAR, RXR, AP-1 and NF-κB, according to the manufacturer’s specifications. To measure the specific activation of PPAR isoforms, cells were also co-transfected with PPAR-α, PPAR-β/δ or PPAR-γ expression vectors. Transfection was performed with Lipofectamine and Plus Reagent in serum-free medium. 3 h after the transfection, the medium was replaced and treatments with the molecules to assay were performed. Luciferase activity was measured the next day using the Dual-Luciferase Reporter Assay System. The measurements were performed with a luminometer (Infinite M1000 from Tecan, Mannedorf, Switzerland). Firefly: Renilla activity ratios were calculated for each condition and ratios from transcription factor-responsive reporter transfections were divided by ratios from negative control transfections to obtain relative luciferase unit, as described by the manufacturer. At least 3 independent transfections were performed in triplicate for each condition.

PPAR-γ [1] = target: T1, PPAR-γ (Homo sapiens, UniProt P37231); design: Eurofins Cerep (contract laboratory that ran the assay); method as in PMID 19891958; settings: cited from earlier work
T1 sequence (P37231 1-505): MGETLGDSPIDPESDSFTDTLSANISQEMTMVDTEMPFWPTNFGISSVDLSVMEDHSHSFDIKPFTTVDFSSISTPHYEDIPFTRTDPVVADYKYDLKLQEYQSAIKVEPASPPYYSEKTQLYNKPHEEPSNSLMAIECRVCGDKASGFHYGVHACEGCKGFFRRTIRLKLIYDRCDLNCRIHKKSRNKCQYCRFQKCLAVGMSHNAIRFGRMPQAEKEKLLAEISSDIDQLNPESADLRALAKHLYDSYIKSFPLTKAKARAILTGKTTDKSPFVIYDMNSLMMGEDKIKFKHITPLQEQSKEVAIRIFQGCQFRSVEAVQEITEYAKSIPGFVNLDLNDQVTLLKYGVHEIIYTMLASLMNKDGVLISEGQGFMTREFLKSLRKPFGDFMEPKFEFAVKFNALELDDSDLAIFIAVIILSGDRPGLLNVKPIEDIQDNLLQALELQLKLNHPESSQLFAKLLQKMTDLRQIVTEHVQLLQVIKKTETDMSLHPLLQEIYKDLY

PPAR-γ [2] = target: T1, PPAR-γ; test: Transactivation of over-expressed PPAR-γ, luciferase reporter in porcine RPE cells; assay type: cell-based, pig; design: a plasmid expressing each of the full-length PPAR isoforms; host or cells: primary porcine RPE cells; settings: for inhibition of PPAR-γ transactivation induced by TGZ: NBX 20 μM; for transactivation of over-expressed PPAR-γ by the compound alone: vs DMSO control, A2E 20 μM, NBX increasing concentrations
Protocol: Then the effects of A2E on the endogenous PPAR transactivation in porcine RPE cells were investigated by means of a luciferase assay. […] The level of transactivation of PPAR-α, -β/δ, or -γ isoforms by A2E was determined by co-transfection of porcine RPE cells with a plasmid expressing each of the full-length PPAR isoforms and a plasmid expressing luciferase under the control of the PPAR response element. […] All usual chemicals, primers, and HX531 were from Sigma (St. Louis, MO, USA). Reagents for cell culture, transfection and quantitative RT-PCR were from Thermo Fisher Scientific (Waltham, MA, USA). RNA extraction NucleoSpin® RNA kit was from Macherey Nagel (Düren, Germany). ECL prime and PVDF membrane were from Amersham GE Healthcare (Buckinghamshire, UK). Primary antibodies against the following proteins were used: GAPDH (Santa Cruz Biotechnology, Inc, Dallas, TX, USA); pAKT, AKT, pERK and ERK (Cell Signaling, Danvers, MA, USA). Secondary antibodies were from Jackson ImmunoResearch (Cambridgeshire, UK). […] Cignal Pathway Reporter Assay Kits were from QIAGEN (Frederick, MD, USA). The Dual-Luciferase Reporter Assay System was purchased from Promega (Madison, WI, USA). pcDNA 3.1 (+)-PPARα and pcDNA 3.1 (+)-PPARβ/δ (pig sequence) were purchased from Genscript (Piscataway, NJ, USA). pCMV6-XL4-PPARγ (human sequence) was purchased from Origene (Rockville, MD, USA).
as §1

Structure (SMILES) | inhibition of NF-κB transactivation induced by A2E (NF-κB; NBX 20 μM, HX531 5 μM) [%] | PPAR-γ transactivation in 3T3-L1 adipocytes (PPAR-γ [1]; norbixin at 20 μM) | PPAR-γ transactivation in 3T3-L1 adipocytes (PPAR-γ [1]; norbixin at 70 μM) | inhibition of PPAR-γ transactivation induced by TGZ (PPAR-γ [2]; 1 μM of TGZ) | effect on over-expressed PPAR-γ transactivation induced by A2E (PPAR-γ [2]; A2E 20 μM + NBX 20 μM) | inhibition of PPAR-γ transactivation induced by TGZ (PPAR-γ [2]; TGZ 10 μM) | transactivation of over-expressed PPAR-γ by the compound alone (PPAR-γ [2]) | effect of the compound alone on NF-κB transactivation (NF-κB; vs DMSO control)
CC(/C=C/C=C(C)/C=C/C(=O)O)=C\C=C\C=C(C)\C=C\C=C(C)\C=C\C(=O)O (stereo in doubt) [norbixin, 9’-cis-norbixin] | 73 | does not induce; also recorded: did not induce | induces a limited transactivation | partially inhibited | fully abolished | this effect was lost | did not demonstrate any transactivation activity | –
CC(C=CC1=C(C)CCCC1(C)C)=CC=CC(C)=Cc1cc(C=CC=C(C)C=CC2=C(C)CCCC2(C)C)cc[n+]1CCO [A2E, N-retinylidene-N-retinylethanolamine] | – | – | – | – | – | – | induced the transactivation | induces the transactivation
